Assay results as given in patent US20230103444A1 (The Regents of the University of Colorado, a Body Corporate, priority 2020, published 2023).
“Also recorded” adds a separate entry of the source. Like-named read-outs stand apart in the source and are kept apart here.

Tests used:
[1] = tested on: E-cadherin promoter activity; experiment: EcadPro-RFP reporter 3D high-content imaging in tumor organoids; type: cell-based; conditions: 72 h; for EC50: Homo sapiens, SW-620, read-out: EC50 upregulation of E-cadherin promoter activity, SW620 tumor organoids
Method: After validating hits 5-7 against CHD1L mediated TCF transcription, the ability of these compounds to reverse EMT and other malignant properties in CRC were evaluated. E-cadherin and vimentin are putative biomarkers for the epithelial and mesenchymal phenotypes, respectively. [McDonald et al., 2015] Loss of E-cadherin and gain of vimentin are also clinical biomarkers of poor prognosis. [Yun et al., 2014; Richardson et al., 2012; Dhanasekaran et al., 2001; Kashiwagi et al., 2010; Toiyama et al., 2013] Accordingly, lentiviral promoter driven reporters for E-cadherin (pCDH1-EcadPro-RFP) and vimentin (pCDH1-VimPro-GFP) were developed, which faithfully report E-cadherin and vimentin protein expression, respectively. [Zhou et al., 2016; Abraham et al., 2019] SW620 cells transduced with either EcadPro-RFP or VimPro-GFP were cultured as tumor organoids for 72 h, reaching a diameter of 600 μm. Tumor organoids were treated with compounds 5-7 for an additional 72 h to determine the effective concentration 50 percent (EC50) for modulating promoter activity. Changes in promoter expression was quantified using a 3D confocal image […] based high-content analysis algorithm (FIG. 2A-2B). [Zhou et al., 2016; Abraham et al., 2019]
CHD1L has been reported to confer anti-apoptotic activity by inhibiting activation of caspase-dependent apoptosis. [Li et al., 2013; Sun et al., 2016] Additionally, reversal or inhibition of EMT is known to restore apoptotic activity of cancer cells. [Lu et al., 2014] To determine if CHD1L inhibitors reverse EMT prior to induction of cell death, E-cadherin expression by EcadPro-RFP reporter activity was monitored and cytotoxicity was measured using the CellTox™ Green assay. Cells were treated with CHD1L inhibitors for 72 h and imaged every 2 h.
Stable VimPro-GFP or EcadPro-RFP SW620 reporter cells were generated using pCDH imPro-GFP-EF1-puro virus or pCDH-EcadPro-mCherry-EF1-puro virus as previously reported. [Zhou et al., 2016; Abraham et al., 2019] The stable fluorescently labeled reporter cells were used to generate tumor organoids as described herein. Tumor organoids were treated with CHD1L inhibitors at 10 μM for an additional 72 h. Following treatment, tumor organoids were stained with 16 μM of Hoechst 33342 for 1 h (nuclei stain). Images were taken with a 5× air objective. Z-stacks were set at 26.5 μm apart for a total of 15 optical slices. Imaging and high-content analysis were performed using an Opera Phenix™ and Harmony® software (PerkinElmer, Hopkinton, Mass.). Nuclei were identified within each layer and cells were found with either GFP or mCherry channel. The fluorescence intensities of each channel were calculated and thresholds were set based on the background intensities. Percentages of GFP or mCherry RFP positive cells were calculated and normalized to the DMSO treated group.
3D High-Content Imaging and Analysis of EMT Dual-Reporter Activity. Tumor organoids were imaged using the Opera Phenix high-content screening system (PerkinElmer) in confocal mode utilizing a 10× air objective (NA 0.3). The following excitation and emission (Ex/Em) wavelengths were employed: RFP (561/570-630) and GFP (488/500-550). Organoids were also imaged in Brightfield to segment and perform high-content analysis of dual reporter specific fluorescence intensity. RFP fluorescent signal correlates with E-Cadherin promoter activity, while GFP fluorescent signal is correlates with vimentin promoter activity. Both fluorescent signals were quantified and normalized as previously described. (Esquer, et al., 2021)

HCT116 tumor organoids = experiment: Tumor organoid cytotoxicity (CellTiter-Glo 3D); type: cell-based, human; conditions: Homo sapiens
Method: Cell based cytotoxicity dose response and combination studies. […] Plates were then incubated for 3 days before treatment.
Cell Line Tumor Organoid Culture.
Tumor Organoid Cytotoxicity.

[2] = Mouse liver microsome stability; conditions: CD-1, mouse, liver microsomes; for half-life: female, initial study
[3] = tested on: HCT-116 and DLD1CHD1L-OE cells; experiment: Clonogenic colony formation after 24 h pretreatment (CSC stemness); type: cell-based, human; conditions: colonies over 10 days
Method: To assess CHD1L inhibitors for their ability to suppress CSC stemness, HCT-116 or CHD1L overexpressing DLD1 cell lines were pre-treated in monolayer cultures for 24 h with vehicle control (0.5% DMSO) or CHD1L inhibitors at the concentrations indicated in FIG. 2C. Pretreated viable cells were plated at 1,000 cells/well in 6-well plates or 200 cells/well in a 24-well plates. Colonies were analyzed using the IncuCyte® S3 2018A (Sartorius, France) software (with the following parameters modified from default: (1) for HCT116 cells segmentation adjustment=0.6; Min area (μm2)=3×104; Max area (μm2)=1.6×106; Max eccentricity=0.9; (2) for DLD1CHD1L OE cells segmentation adjustment=1; Min area (μm2)=1×104; Max area was not constrained; Max eccentricity=0.95. Experiments were replicated 2× (n=2 for each experiment).

HCT116 cells = experiment: Invasion assay (scratch wound in Matrigel); type: cell-based, human; conditions: 50% Matrigel, 48-72 h
Method: A hallmark of EMT is an increase in CSC stemness and cell invasion. Therefore, the ability of compounds 5-7 to inhibit migration and invasion in HCT-116 and DLD1^CHD1L-OE cells was tested. […] Note that DLD1^CHD1L-OE cells form two times more colonies than HCT-116 cells, which have moderate CHD1L expression. This observation is consistent with CHD1L's oncogenic and tumorigenic properties. Next, using HCT-116 cells with uniform scratch wounds imbedded in 50% Matrigel® matrix (Corning Life Sciences, Corning, N.Y.) cells were treated with CHD1L inhibitors at concentrations indicated and invasion was monitored over 72 h.
HCT116 cells were plated at 60,000 cells/well into an IncuCyte® ImageLock 96-well plate (Sartorius, France) and allowed to attach overnight. A wound was created in all wells using the IncuCyte® WoundMaker then washed 2× with PBS. The plate was brought to 4° C. using a Corning XT Cool Core to avoid polymerization of the Matrigel® matrix (Corning Life Sciences, Corning, N.Y.) during the preparation of the invasion conditions. Wells were coated with 50 μL of 50% Matrigel® matrix in RPMI-1640 media. Plates were centrifuged at 150 rpm at 4° C. for 3 min, using a swing bucket rotor to ensure even matrix coating with no air bubbles. […]

[4] = HCT-116, single agent, Table 4A, read-out: Tumor Organoid Cytotoxicity IC50 (μM) HCT116

SMILES | E-cadherin expression before onset of cytotoxicity ([1]; EcadPro-RFP reporter and CellTox Green, imaged every 2 h, relative to DMSO) | EC50 [1] [µM] | IC50 (HCT116 tumor organoids; [4]) [µM] | half-life ([2]; Microsomal Half-life (min), female CD-1 mouse microsomes) [min] | half-life ([2]; half-life in liver microsomes) [min] | inhibition of CSC stemness (clonogenic colony formation), in words ([3]; listed as 6.0) | inhibition of invasion, in words (HCT116 cells; listed as 6.0) | upregulation of E-cadherin promoter activity (EcadPro-RFP), in words ([1]; SW620 or HCT116 tumor organoids) | IC50 (HCT116 tumor organoids; HCT-116, 72 h, Table 6, read-out: 3 D Cytotoxicity 72 hr IC50 (μM) HCT116) [µM] | half-life at 10 μM ([2]; pH 7.4, in vitro liver microsome half-life, second series, different liver microsome preparation) [min] | inhibition of CSC stemness (clonogenic colony formation), in words [3] | inhibition of invasion, in words (HCT116 cells)
Cc1cc(Nc2ccc(NC(=O)Cc3cccs3)cc2)nc(N2CCCC2)n1 [Compound 6, N-(4-((6-methyl-2-(pyrrolidin-1-yl)pyrimidin-4-yl)amino)phenyl)-2-(thiophen-2-yl)acetamide] | significant increase in E-cadherin expression prior to induction of cytotoxicity | 11.4 ± 0.3 | 4.93 | 17 | < 20 | more potent dose dependent inhibition; also recorded: significantly inhibits CSC stemness | most potent activity | – | – | – | – | –
Cc1cc(Nc2ccc(NC(=O)c3c[nH]c4ccccc34)cc2)nc(N2CCCC2)n1 [Compound 6.3, N-(4-((6-methyl-2-(pyrrolidin-1-yl)pyrimidin-4-yl)amino)phenyl)-1H-indole-3-carboxamide] | – | – | 3.72 | – | – | – | – | upregulation of E-cadherin promoter activity | 3.7 | 98 | significantly inhibits clonogenic colony formation | significantly inhibits HCT116 invasive potential
COc1ccc(-c2nc(S(=O)(=O)c3ccccc3)c(S(C)(=O)=O)o2)cc1 [Compound 5] | – | 11.9 ± 0.3 | – | – | – | – | – | – | – | – | more potent dose dependent inhibition | –
